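Protocol summary: plate cells (96-well), add compound at 5 concentrations, incubate 48 h, interpolate endpoints linearly. GI50: concentration for 50% inhibition of growth. The concentration for full growth arrest is given as TGI.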
What was measured:
Experiment in all cases: NCI-60 cell line screen, 48 h
NCI-H460 lung = test system: NCI-H460 lung
EKVX NSCLC = test system: EKVX NSCLC
HCC-2998 colon = test system: HCC-2998 colon
SK-OV-3 ovarian = test system: SK-OV-3 ovarian
NCI-H23 lung = test system: NCI-H23 lung
SNB-78 CNS = test system: SNB-78 CNS
DLD-1 colon = test system: DLD-1 colon
HCT-116 colon = test system: HCT-116 colon
RPMI-8226 leukemia = test system: RPMI-8226 leukemia
LXFL 529 NSCLC = test system: LXFL 529 NSCLC
MALME-3M melanoma = test system: MALME-3M melanoma
M14 melanoma = test system: M14 melanoma
IGROV1 ovarian = test system: IGROV1 ovarian
KM20L2 colon = test system: KM20L2 colon
HT29 colon = test system: HT29 colon
DMS 273 small cell lung = test system: DMS 273 small cell lung
RXF 393 renal = test system: RXF 393 renal
COLO 205 colon = test system: COLO 205 colon
SNB-19 CNS = test system: SNB-19 CNS
TK-10 renal = test system: TK-10 renal
UO-31 renal = test system: UO-31 renal
CAKI-1 renal = test system: CAKI-1 renal
UACC-62 melanoma = test system: UACC-62 melanoma
SW-620 colon = test system: SW-620 colon
UACC-257 melanoma = test system: UACC-257 melanoma
A498 renal = test system: A498 renal
HOP-92 NSCLC = test system: HOP-92 NSCLC
OVCAR-5 ovarian = test system: OVCAR-5 ovarian
SF-268 CNS = test system: SF-268 CNS
LOX IMVI melanoma = test system: LOX IMVI melanoma
NCI-H522 lung = test system: NCI-H522 lung
HOP-18 NSCLC = test system: HOP-18 NSCLC
SK-MEL-28 melanoma = test system: SK-MEL-28 melanoma
786-0 renal = test system: 786-0 renal
SNB-75 CNS = test system: SNB-75 CNS
U251 CNS = test system: U251 CNS
A549 NSCLC = test system: A549 NSCLC
ACHN renal = test system: ACHN renal
SN12C renal = test system: SN12C renal
HCT-15 colon = test system: HCT-15 colon
CCRF-CEM leukemia = test system: CCRF-CEM leukemia
OVCAR-4 ovarian = test system: OVCAR-4 ovarian
KM12 colon = test system: KM12 colon
K-562 leukemia = test system: K-562 leukemia
NCI-H226 lung = test system: NCI-H226 lung
OVCAR-8 ovarian = test system: OVCAR-8 ovarian
SK-MEL-2 melanoma = test system: SK-MEL-2 melanoma
OVCAR-3 ovarian = test system: OVCAR-3 ovarian
SK-MEL-5 melanoma = test system: SK-MEL-5 melanoma
DMS 114 small cell lung = test system: DMS 114 small cell lung
MOLT-4 leukemia = test system: MOLT-4 leukemia
SF-539 CNS = test system: SF-539 CNS
HOP-62 NSCLC = test system: HOP-62 NSCLC
SR leukemia = test system: SR leukemia
M19-MEL melanoma = test system: M19-MEL melanoma
SF-295 CNS = test system: SF-295 CNS

O=c1c(O)c(O)c1=O.[NH2-].[NH2-].[NH2-].[NH2-].[NH2-].[Ru+5]
GI50 (NCI-H460 lung): > 100 µM
TGI (NCI-H460 lung): > 100 µM
GI50 (EKVX NSCLC): > 100 µM
TGI (EKVX NSCLC): > 100 µM
GI50 (HCC-2998 colon): > 100 µM
TGI (HCC-2998 colon): > 100 µM
GI50 (SK-OV-3 ovarian): > 100 µM
TGI (SK-OV-3 ovarian): > 100 µM
GI50 (NCI-H23 lung): > 100 µM
TGI (NCI-H23 lung): > 100 µM
GI50 (SNB-78 CNS): > 100 µM
TGI (SNB-78 CNS): > 100 µM
GI50 (DLD-1 colon): > 100 µM
TGI (DLD-1 colon): > 100 µM
GI50 (HCT-116 colon): > 100 µM
TGI (HCT-116 colon): > 100 µM
GI50 (RPMI-8226 leukemia): > 100 µM
TGI (RPMI-8226 leukemia): > 100 µM
GI50 (LXFL 529 NSCLC): > 100 µM
TGI (LXFL 529 NSCLC): > 100 µM
GI50 (MALME-3M melanoma): > 100 µM
TGI (MALME-3M melanoma): > 100 µM
GI50 (M14 melanoma): > 100 µM
TGI (M14 melanoma): > 100 µM
GI50 (IGROV1 ovarian): > 100 µM
TGI (IGROV1 ovarian): > 100 µM
GI50 (KM20L2 colon): > 100 µM
TGI (KM20L2 colon): > 100 µM
GI50 (HT29 colon): > 100 µM
TGI (HT29 colon): > 100 µM
GI50 (DMS 273 small cell lung): > 100 µM
TGI (DMS 273 small cell lung): > 100 µM
GI50 (RXF 393 renal): > 100 µM
TGI (RXF 393 renal): > 100 µM
GI50 (COLO 205 colon): > 100 µM
TGI (COLO 205 colon): > 100 µM
GI50 (SNB-19 CNS): > 100 µM
TGI (SNB-19 CNS): > 100 µM
GI50 (TK-10 renal): > 100 µM
TGI (TK-10 renal): > 100 µM
GI50 (UO-31 renal): > 100 µM
TGI (UO-31 renal): > 100 µM
GI50 (CAKI-1 renal): > 100 µM
TGI (CAKI-1 renal): > 100 µM
GI50 (UACC-62 melanoma): > 100 µM
TGI (UACC-62 melanoma): > 100 µM
GI50 (SW-620 colon): > 100 µM
TGI (SW-620 colon): > 100 µM
GI50 (UACC-257 melanoma): > 100 µM
TGI (UACC-257 melanoma): > 100 µM
GI50 (A498 renal): > 100 µM
TGI (A498 renal): > 100 µM
GI50 (HOP-92 NSCLC): > 100 µM
TGI (HOP-92 NSCLC): > 100 µM
GI50 (OVCAR-5 ovarian): > 100 µM
TGI (OVCAR-5 ovarian): > 100 µM
GI50 (SF-268 CNS): > 100 µM
TGI (SF-268 CNS): > 100 µM
GI50 (LOX IMVI melanoma): > 100 µM
TGI (LOX IMVI melanoma): > 100 µM
GI50 (NCI-H522 lung): > 100 µM
TGI (NCI-H522 lung): > 100 µM
GI50 (HOP-18 NSCLC): > 100 µM
TGI (HOP-18 NSCLC): > 100 µM
GI50 (SK-MEL-28 melanoma): > 100 µM
TGI (SK-MEL-28 melanoma): > 100 µM
GI50 (786-0 renal): > 100 µM
TGI (786-0 renal): > 100 µM
GI50 (SNB-75 CNS): > 100 µM
TGI (SNB-75 CNS): > 100 µM
GI50 (U251 CNS): > 100 µM
TGI (U251 CNS): > 100 µM
GI50 (A549 NSCLC): > 100 µM
TGI (A549 NSCLC): > 100 µM
GI50 (ACHN renal): > 100 µM
TGI (ACHN renal): > 100 µM
GI50 (SN12C renal): > 100 µM
TGI (SN12C renal): > 100 µM
GI50 (HCT-15 colon): > 100 µM
TGI (HCT-15 colon): > 100 µM
GI50 (CCRF-CEM leukemia): > 100 µM
TGI (CCRF-CEM leukemia): > 100 µM
GI50 (OVCAR-4 ovarian): > 100 µM
TGI (OVCAR-4 ovarian): > 100 µM
GI50 (KM12 colon): > 100 µM
TGI (KM12 colon): > 100 µM
GI50 (K-562 leukemia): > 100 µM
TGI (K-562 leukemia): > 100 µM
GI50 (NCI-H226 lung): > 100 µM
TGI (NCI-H226 lung): > 100 µM
GI50 (OVCAR-8 ovarian): > 100 µM
TGI (OVCAR-8 ovarian): > 100 µM
GI50 (SK-MEL-2 melanoma): > 100 µM
TGI (SK-MEL-2 melanoma): > 100 µM

COc1cc(/C=N/N=C(\N)NO)cc(Cl)c1O
TGI (NCI-H460 lung): > 100 µM
TGI (OVCAR-3 ovarian): > 100 µM
TGI (EKVX NSCLC): > 100 µM
TGI (SK-MEL-5 melanoma): > 100 µM
TGI (HCC-2998 colon): > 100 µM
TGI (SK-OV-3 ovarian): > 100 µM
TGI (DMS 114 small cell lung): > 100 µM
TGI (NCI-H23 lung): > 100 µM
TGI (SNB-78 CNS): > 100 µM
TGI (DLD-1 colon): > 100 µM
TGI (HCT-116 colon): > 100 µM
TGI (RPMI-8226 leukemia): > 100 µM
TGI (LXFL 529 NSCLC): > 100 µM
TGI (MALME-3M melanoma): > 100 µM
TGI (M14 melanoma): > 100 µM
TGI (IGROV1 ovarian): > 100 µM
TGI (HT29 colon): > 100 µM
TGI (MOLT-4 leukemia): > 100 µM
TGI (RXF 393 renal): 61.7 µM
TGI (COLO 205 colon): > 100 µM
TGI (SNB-19 CNS): > 100 µM
TGI (UO-31 renal): > 100 µM
TGI (CAKI-1 renal): > 100 µM
TGI (UACC-62 melanoma): > 100 µM
TGI (SW-620 colon): > 100 µM
TGI (UACC-257 melanoma): > 100 µM
TGI (A498 renal): > 100 µM
TGI (SF-539 CNS): > 100 µM
TGI (HOP-92 NSCLC): > 100 µM
TGI (HOP-62 NSCLC): > 100 µM
TGI (OVCAR-5 ovarian): > 100 µM
TGI (SF-268 CNS): > 100 µM
TGI (LOX IMVI melanoma): > 100 µM
TGI (NCI-H522 lung): > 100 µM
TGI (HOP-18 NSCLC): 88.5 µM
TGI (SR leukemia): > 100 µM
TGI (SK-MEL-28 melanoma): > 100 µM
TGI (786-0 renal): > 100 µM
TGI (M19-MEL melanoma): > 100 µM
TGI (U251 CNS): > 100 µM
TGI (A549 NSCLC): > 100 µM
TGI (ACHN renal): > 100 µM
TGI (SN12C renal): > 100 µM
TGI (HCT-15 colon): > 100 µM
TGI (CCRF-CEM leukemia): > 100 µM
TGI (OVCAR-4 ovarian): > 100 µM
TGI (KM12 colon): > 100 µM
TGI (SF-295 CNS): > 100 µM
TGI (K-562 leukemia): > 100 µM
TGI (NCI-H226 lung): 81.6 µM
TGI (OVCAR-8 ovarian): > 100 µM
TGI (SK-MEL-2 melanoma): > 100 µM

— PubChem BioAssay (NCI)
